Earlier results in patent US20080206336A1, “Novel Composition Comprising Rosiglitazone and Another Antidiabetic Agent” (SB PHARMCO PURERTO RICO INC. The Prentice Hall Corp. System …, priority 2003, published 2008).

Conditions: acidic conditions of the stomach (around pH 2) versus near neutral conditions of the lower intestine (around pH 7)

For `CN(CCOc1ccc(CC2SC(=O)NC2=O)cc1)c1ccccn1` (stereo not shown) [Compound A, 5-[4-[2-(N-methyl-N-(2 pyridyl)amino)ethoxy]benzyl]thiazolidine-2,4-dione], the pH dependent solubility is given as “marked pH dependent solubility”.
